From US9701693B2, “Selective glycosidase inhibitors and uses thereof” (Alectos Therapeutics Inc., priority 2011, dated 2017)

Legend:
human O-GlcNAcase = human O-GlcNAcase (Homo sapiens (Human), UniProt O60502); assay: Fluorescence-based assay for determination of KI values for inhibition of O-GlcNAcase activity; format: biochemical; details: purified human O-GlcNAcase 0.7 nM, 2 mM 4-Methylumbelliferyl N-acetyl-β-D-glucosaminide, pH 7.0, Cheng-Prusoff; read-out: Fluorescence-based hOGA Ki
Procedure: Assay for Determination of KIValues for Inhibition of O-GlcNAcase Activity Experimental procedure for kinetic analyses: Enzymatic reactions were carried out in a reaction containing 50 mM NaH2PO4, 100 mM NaCl and 0.1% BSA (pH 7.0) using 2 mM 4-Methylumbelliferyl N-acetyl-β-D-glucosaminide dihydrate (Sigma M2133) dissolved in ddH2O, as a substrate. The amount of purified human O-GlcNAcase enzyme used in the reaction was 0.7 nM. Test compound of varying concentrations was added to the enzyme prior to initiation of the reaction. The reaction was performed at room temperature in a 96-well plate and was initiated with the addition of substrate. […] The slope of product production was determined for each concentration of compound tested and plotted, using standard curve fitting algorithms for sigmoidal dose response curves. The values for a four parameter logistic curve fit of the data were determined.

[1] = test system: O-GlcNAcase in rat PC-12 cells; assay: Cell-based ELISA for cellular O-GlcNAcase inhibition (O-GlcNAcylated protein, RL-2 antibody); details: 24 h treatment, O-GlcNAcylated protein detected with RL-2 antibody
Source text: Assay for Determination of Cellular Activity for Compounds that Inhibit O-GlcNAcase Activity
Inhibition of O-GlcNAcase, which removes O-GlcNAc from cellular proteins, results in an increase in the level of O-GlcNAcylated protein in cells. An increase in O-GlcNAcylated protein can be measured by an antibody, such as RL-2, that binds to O-GlcNAcylated protein. The amount of O-GlcNAcylated protein:RL2 antibody interaction can be measured by enzyme linked immunosorbant assay (ELISA) procedures.
A variety of tissue culture cell lines, expressing endogenous levels of O-GlcNAcase, can be utilized; examples include rat PC-12, and human U-87, or SK-N-SH cells. […] If desired, the total protein concentration of samples was determined using 20 μL of the sample using the BCA method.
The ELISA portion of the assay was performed in a black Maxisorp 96-well plate that was coated overnight at 4° C. with 100 μL/well of the cell lysate (1:10 dilution of the lysate with PBS containing protease inhibitors, phosphatase inhibitors, and PMSF). […] The detection reaction was incubated for 15 minutes at room temperature and then read with excitation at 530 nm and emission at 590 nm
The amount of O-GlcNAcylated protein, as detected by the ELISA assay, was plotted for each concentration of test compound using standard curve fitting algorithms for sigmoidal dose response curves. […]

human O-GlcNAcase, sequence (O60502 whole entry): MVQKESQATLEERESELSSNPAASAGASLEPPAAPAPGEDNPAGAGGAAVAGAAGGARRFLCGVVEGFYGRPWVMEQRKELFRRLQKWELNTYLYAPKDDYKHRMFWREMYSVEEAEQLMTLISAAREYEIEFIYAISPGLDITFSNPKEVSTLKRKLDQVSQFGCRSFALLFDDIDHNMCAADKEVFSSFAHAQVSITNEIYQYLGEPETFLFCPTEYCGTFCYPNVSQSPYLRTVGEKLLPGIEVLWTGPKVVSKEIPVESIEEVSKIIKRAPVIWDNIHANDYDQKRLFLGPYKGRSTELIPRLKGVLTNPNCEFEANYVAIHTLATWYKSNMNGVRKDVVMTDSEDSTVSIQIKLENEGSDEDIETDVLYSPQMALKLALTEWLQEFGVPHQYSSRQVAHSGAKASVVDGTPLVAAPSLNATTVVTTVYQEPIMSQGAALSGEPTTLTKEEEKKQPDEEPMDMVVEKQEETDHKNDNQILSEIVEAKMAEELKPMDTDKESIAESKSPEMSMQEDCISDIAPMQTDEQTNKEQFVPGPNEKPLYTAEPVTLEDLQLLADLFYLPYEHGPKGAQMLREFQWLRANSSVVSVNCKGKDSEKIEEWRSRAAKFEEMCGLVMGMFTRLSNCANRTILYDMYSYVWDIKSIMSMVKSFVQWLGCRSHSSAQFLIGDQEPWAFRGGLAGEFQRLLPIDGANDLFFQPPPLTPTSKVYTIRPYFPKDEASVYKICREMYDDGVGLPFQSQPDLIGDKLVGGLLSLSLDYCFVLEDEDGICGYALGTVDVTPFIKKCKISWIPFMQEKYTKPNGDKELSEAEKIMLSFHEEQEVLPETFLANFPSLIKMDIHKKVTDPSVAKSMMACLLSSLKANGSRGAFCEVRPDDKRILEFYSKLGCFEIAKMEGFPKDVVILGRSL

| Compound | Ki (human O-GlcNAcase) [µM] | EC50 [1] [µM] |
| --- | --- | --- |
| CN(C)C1=N[C@@H]2[C@@H](O)[C@@H](O)[C@@H](CO)O[C@@H]2S1 [Example 2, (3aR,5R,6R,7R,7aR)-2-(dimethylamino)-5-(hydroxymethyl)-5,6,7,7a-tetrahydro-3aH-pyrano[3,2-d]thiazole-6,7-diol] | 0.0286 | – |
| CNC1=N[C@@H]2[C@H](O)[C@H](O)[C@@H](CO)O[C@@H]2S1 [Example 4, (3aR,5R,6S,7S,7aR)-5-(hydroxymethyl)-2-(methylamino)-5,6,7,7a-tetrahydro-3aH-pyrano[3,2-d]thiazole-6,7-diol] | – | 0.109 |
